Measurements from article PMC3277400 (Nature Medicine, 2011).

Target: TcdB (Clostridioides difficile, UniProt P18177)
Assay type: biochemical

Sequence of TcdB (P18177 2-2366 limits assumed): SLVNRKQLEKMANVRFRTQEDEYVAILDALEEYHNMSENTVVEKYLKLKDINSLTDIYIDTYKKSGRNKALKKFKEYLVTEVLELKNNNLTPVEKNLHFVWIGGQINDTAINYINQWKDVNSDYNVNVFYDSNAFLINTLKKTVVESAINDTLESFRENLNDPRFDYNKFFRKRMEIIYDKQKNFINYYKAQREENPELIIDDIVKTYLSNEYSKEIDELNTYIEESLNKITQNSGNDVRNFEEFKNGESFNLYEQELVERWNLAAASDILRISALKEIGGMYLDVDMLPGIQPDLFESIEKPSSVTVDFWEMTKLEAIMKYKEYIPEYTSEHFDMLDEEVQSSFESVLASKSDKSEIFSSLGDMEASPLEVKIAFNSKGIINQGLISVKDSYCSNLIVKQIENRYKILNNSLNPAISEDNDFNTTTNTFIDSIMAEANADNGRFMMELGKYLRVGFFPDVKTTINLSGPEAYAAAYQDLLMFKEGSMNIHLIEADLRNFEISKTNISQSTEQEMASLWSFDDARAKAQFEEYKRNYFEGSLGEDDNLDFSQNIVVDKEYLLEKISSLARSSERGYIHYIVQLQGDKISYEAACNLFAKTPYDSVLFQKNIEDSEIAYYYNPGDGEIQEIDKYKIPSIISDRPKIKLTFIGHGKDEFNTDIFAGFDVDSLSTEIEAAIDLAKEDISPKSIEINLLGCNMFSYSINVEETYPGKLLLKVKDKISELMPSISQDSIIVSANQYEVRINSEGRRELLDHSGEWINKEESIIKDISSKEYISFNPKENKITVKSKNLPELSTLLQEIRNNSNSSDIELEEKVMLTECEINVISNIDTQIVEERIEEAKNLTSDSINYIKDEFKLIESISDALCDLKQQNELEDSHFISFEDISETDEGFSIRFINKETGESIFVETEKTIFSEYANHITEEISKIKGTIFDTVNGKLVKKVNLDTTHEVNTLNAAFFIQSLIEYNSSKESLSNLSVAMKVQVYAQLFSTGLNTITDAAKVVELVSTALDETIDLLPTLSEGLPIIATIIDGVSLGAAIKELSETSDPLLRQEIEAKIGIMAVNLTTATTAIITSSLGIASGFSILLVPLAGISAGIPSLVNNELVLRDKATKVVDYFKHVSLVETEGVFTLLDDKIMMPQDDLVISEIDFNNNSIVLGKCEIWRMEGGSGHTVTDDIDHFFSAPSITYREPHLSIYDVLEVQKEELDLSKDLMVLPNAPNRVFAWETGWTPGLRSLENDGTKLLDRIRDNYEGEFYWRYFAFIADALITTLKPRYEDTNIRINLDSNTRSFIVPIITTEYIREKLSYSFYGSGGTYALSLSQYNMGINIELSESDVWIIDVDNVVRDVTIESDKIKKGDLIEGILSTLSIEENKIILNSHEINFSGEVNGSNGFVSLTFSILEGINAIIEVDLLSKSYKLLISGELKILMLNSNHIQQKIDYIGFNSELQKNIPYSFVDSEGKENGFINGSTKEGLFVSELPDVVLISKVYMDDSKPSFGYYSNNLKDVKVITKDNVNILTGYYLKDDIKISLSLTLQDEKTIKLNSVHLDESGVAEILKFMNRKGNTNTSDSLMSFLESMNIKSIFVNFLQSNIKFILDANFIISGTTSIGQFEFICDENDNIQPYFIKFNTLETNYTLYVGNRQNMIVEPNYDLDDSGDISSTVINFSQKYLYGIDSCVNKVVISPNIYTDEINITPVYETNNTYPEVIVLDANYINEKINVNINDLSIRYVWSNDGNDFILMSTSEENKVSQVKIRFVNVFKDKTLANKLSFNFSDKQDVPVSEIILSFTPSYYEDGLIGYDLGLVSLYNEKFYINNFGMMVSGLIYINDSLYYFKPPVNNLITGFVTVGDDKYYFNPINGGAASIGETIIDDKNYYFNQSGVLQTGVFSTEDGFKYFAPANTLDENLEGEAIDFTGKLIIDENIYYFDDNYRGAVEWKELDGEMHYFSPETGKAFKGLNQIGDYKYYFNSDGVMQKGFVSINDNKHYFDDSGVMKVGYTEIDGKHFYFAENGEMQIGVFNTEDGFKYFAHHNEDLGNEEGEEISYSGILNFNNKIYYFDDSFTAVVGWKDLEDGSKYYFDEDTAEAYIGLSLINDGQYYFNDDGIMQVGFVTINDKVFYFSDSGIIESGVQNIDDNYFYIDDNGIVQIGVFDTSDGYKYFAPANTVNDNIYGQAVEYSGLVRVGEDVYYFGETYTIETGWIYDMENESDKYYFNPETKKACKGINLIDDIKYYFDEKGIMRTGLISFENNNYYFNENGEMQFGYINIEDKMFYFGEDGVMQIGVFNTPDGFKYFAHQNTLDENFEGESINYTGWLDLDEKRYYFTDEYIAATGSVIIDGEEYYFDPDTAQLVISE

O=P(O)(O)O[C@H]1[C@H](OP(=O)(O)O)[C@@H](OP(=O)(O)O)[C@H](OP(=O)(O)O)[C@@H](OP(=O)(O)O)[C@H]1OP(=O)(O)O [InsP6]
InsP6-induced autocleavage, gel and immunoblot: Autocleavage of native TcdB versus E743A mutant with increasing InsP6 concentrations
